Reference: ChEMBL document CHEMBL4138231 (Eur J Med Chem, 2018)
Activity calls are given as the source filed them. No cut-off for these calls is given here.

How the values were obtained:
[1] = test system: K562; test: Antiproliferative activity against human K562 cells after 72 hrs by CCK8 assay; format: functional
[2] = test system: MCF7; test: Antiproliferative activity against human MCF7 cells after 72 hrs by CCK8 assay; format: functional
[3] = test system: NCI-H1975; test: Antiproliferative activity against human NCI-H1975 cells after 72 hrs by CCK8 assay; format: functional
[4] = test system: HeLa; test: Antiproliferative activity against human HeLa cells after 72 hrs by CCK8 assay; format: functional
[5] = test system: A549; test: Antiproliferative activity against human A549 cells after 72 hrs by CCK8 assay; format: functional
[6] = test system: Huh-7; test: Antiproliferative activity against human HuH7 cells after 72 hrs by CCK8 assay; format: functional
[7] = biological target: Serine/threonine-protein kinase PLK3 (Homo sapiens, UniProt Q9H4B4); test: Inhibition human recombinant GST-tagged Plk3 catalytic domain (58 to 340 residues) expressed in baculovirus expression system after 1 hr by FRET-based Z'-Lyte assay
[8] = biological target: Serine/threonine-protein kinase PLK2 (Homo sapiens, UniProt Q9NYY3); test: Inhibition human recombinant full length GST-tagged Plk2 expressed in baculovirus expression system after 1 hr by FRET-based Z'-Lyte assay
Serine/threonine-protein kinase PLK2, sequence (Q9NYY3 whole entry): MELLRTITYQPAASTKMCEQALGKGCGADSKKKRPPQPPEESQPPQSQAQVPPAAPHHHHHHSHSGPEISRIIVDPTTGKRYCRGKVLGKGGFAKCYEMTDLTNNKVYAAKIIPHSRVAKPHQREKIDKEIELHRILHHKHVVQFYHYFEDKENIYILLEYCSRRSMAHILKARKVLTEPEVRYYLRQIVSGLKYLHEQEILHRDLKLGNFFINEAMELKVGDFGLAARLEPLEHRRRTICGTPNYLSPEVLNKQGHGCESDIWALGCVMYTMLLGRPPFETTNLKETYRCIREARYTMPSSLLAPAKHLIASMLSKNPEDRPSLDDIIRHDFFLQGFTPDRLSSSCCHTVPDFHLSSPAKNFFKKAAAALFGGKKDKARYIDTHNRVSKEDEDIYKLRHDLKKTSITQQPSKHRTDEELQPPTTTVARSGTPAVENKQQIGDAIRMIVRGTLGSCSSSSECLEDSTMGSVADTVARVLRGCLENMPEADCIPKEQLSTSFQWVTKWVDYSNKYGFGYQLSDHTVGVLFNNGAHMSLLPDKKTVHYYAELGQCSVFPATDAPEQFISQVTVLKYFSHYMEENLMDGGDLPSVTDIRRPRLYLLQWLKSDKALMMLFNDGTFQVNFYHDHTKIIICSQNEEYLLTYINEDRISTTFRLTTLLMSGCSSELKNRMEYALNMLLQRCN

Serine/threonine-protein kinase PLK3, sequence (Q9H4B4 whole entry, the tested form may be a part): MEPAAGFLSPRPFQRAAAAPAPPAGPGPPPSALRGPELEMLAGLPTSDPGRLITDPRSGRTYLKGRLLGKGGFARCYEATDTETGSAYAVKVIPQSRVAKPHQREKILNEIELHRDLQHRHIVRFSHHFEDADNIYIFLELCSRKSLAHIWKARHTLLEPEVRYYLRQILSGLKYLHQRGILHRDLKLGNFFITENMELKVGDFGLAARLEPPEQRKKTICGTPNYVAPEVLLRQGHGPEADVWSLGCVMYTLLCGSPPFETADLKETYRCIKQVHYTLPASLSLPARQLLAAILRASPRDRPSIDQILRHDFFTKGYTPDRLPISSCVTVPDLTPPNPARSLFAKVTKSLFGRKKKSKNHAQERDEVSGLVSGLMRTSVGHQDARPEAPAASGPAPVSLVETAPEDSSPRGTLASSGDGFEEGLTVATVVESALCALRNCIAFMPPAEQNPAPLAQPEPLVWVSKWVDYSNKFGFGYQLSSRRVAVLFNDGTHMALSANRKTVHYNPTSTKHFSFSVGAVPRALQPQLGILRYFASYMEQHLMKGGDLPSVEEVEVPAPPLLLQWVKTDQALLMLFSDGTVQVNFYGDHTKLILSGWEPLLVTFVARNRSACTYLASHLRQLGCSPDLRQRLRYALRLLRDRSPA

Structure (SMILES)	GI50 ([1]; K562, 72 h) [nM]	GI50 ([2]; MCF7, 72 h) [nM]	GI50 ([3]; NCI-H1975, 72 h) [nM]	GI50 [4]	GI50 ([5]; A549, 72 h) [nM]	GI50 ([6]; Huh-7, 72 h) [nM]	IC50 [7] [nM]	IC50 [8] [nM]	GI50 [2]	GI50 [3]	GI50 [6]	GI50 [1]	GI50 [5]
CC[C@@H]1C(=O)N(C)c2cnc(-n3ccc4ccccc43)nc2N1C1CCCC1	6910	17200	28300	33900 nM	57500	4690	> 20000	–	–	–	–	–	–
CCCNS(=O)(=O)c1ccc(Nc2ncc3c(n2)N(c2ccn(C)n2)C(CC)C(=O)N3C)cc1 (racemic)	2260	3000	21700	2670 nM	15000	8880	–	190	–	–	–	–	–
CC[C@@H]1C(=O)N(C)c2cnc(Nc3ccc(S(=O)(=O)NCC(C)C)cc3)nc2N1C1CCCC1	705	403	1040	561 nM	750	411	–	21.8	–	–	–	–	–
CCCNC(=O)c1ccc2c(ccn2-c2ncc3c(n2)N(C2CCCC2)[C@H](CC)C(=O)N3C)c1	395	592	786	238 nM	1640	689	–	11.3	–	–	–	–	–
CCC1C(=O)N(C)c2cnc(-n3ccc4cc(C(=O)NC5CCCC5)ccc43)nc2N1c1ccn(C)n1 (racemic)	31300	–	–	27400 nM	39500	–	–	90.9	inactive	inactive	inactive	–	–
CC[C@@H]1C(=O)N(C)c2cnc(Nc3ccc(C(=O)NC4CCN(C)CC4)cc3OC)nc2N1C1CCCC1 [BI-2536]	68	67	230	34 nM	57	28	–	–	–	–	–	–	–
CC[C@@H]1C(=O)N(C)c2cnc(Nc3ccc(S(=O)(=O)NC)cc3)nc2N1C1CCCC1	222	151	1410	148 nM	183	99	–	3.4	–	–	–	–	–
CC[C@@H]1C(=O)N(C)c2cnc(Nc3ccc(S(=O)(=O)Nc4ccccc4)cc3)nc2N1C1CCCC1	4180	5430	6000	5140 nM	4150	2790	–	54.4	–	–	–	–	–
CC[C@@H]1C(=O)N(C)c2cnc(Nc3ccc(S(N)(=O)=O)cc3)nc2N1C1CCCC1	470	394	5290	317 nM	3390	1300	–	10.2	–	–	–	–	–
CCCCNC(=O)c1ccc2c(ccn2-c2ncc3c(n2)N(C2CCCC2)[C@H](CC)C(=O)N3C)c1	673	634	990	346 nM	1160	683	–	16.5	–	–	–	–	–
CCCCNS(=O)(=O)c1ccc(Nc2ncc3c(n2)N(c2ccn(C)n2)C(CC)C(=O)N3C)cc1 (racemic)	4240	5780	4120	4320 nM	10600	3750	–	191	–	–	–	–	–
CC[C@@H]1C(=O)N(C)c2cnc(-n3ccc4cc(C(=O)NCC(C)C)ccc43)nc2N1C1CCCC1	638	953	–	3280 nM	1730	–	–	18.6	–	inactive	inactive	–	–
CCCCNS(=O)(=O)c1ccc(Nc2ncc3c(n2)N(C2CCCC2)[C@H](CC)C(=O)N3C)cc1	412	459	1610	451 nM	477	225	–	19.9	–	–	–	–	–
CCCNS(=O)(=O)c1ccc(Nc2ncc3c(n2)N(C2CCCC2)[C@H](CC)C(=O)N3C)cc1	548	344	2100	459 nM	563	278	–	17.8	–	–	–	–	–
CCC1C(=O)N(C)c2cnc(Nc3ccc(S(=O)(=O)NC)cc3)nc2N1c1ccn(C)n1 (racemic)	2890	3750	18800	2200 nM	12600	11900	–	71.5	–	–	–	–	–
CC[C@@H]1C(=O)N(C)c2cnc(-n3ccc4cc(C(N)=O)ccc43)nc2N1C1CCCC1	1850	1830	3380	674 nM	4350	3090	–	28.5	–	–	–	–	–
CC[C@@H]1C(=O)N(C)c2cnc(-n3ccc4cc(C(=O)NC)ccc43)nc2N1C1CCCC1	705	1000	1370	768 nM	2200	842	–	8.6	–	–	–	–	–
CC[C@@H]1C(=O)N(C)c2cnc(Nc3ccc(S(=O)(=O)NCCO)cc3)nc2N1C1CCCC1	546	344	2100	459 nM	563	278	–	7.86	–	–	–	–	–
CC[C@@H]1C(=O)N(C)c2cnc(-n3ccc4cc(C(=O)NC(C)C)ccc43)nc2N1C1CCCC1	786	1670	1840	292 nM	1780	1660	–	17.4	–	–	–	–	–
CCC1C(=O)N(C)c2cnc(Nc3ccc(S(=O)(=O)NCC(C)C)cc3)nc2N1c1ccn(C)n1 (racemic)	7300	8350	15000	5310 nM	31600	8520	–	311	–	–	–	–	–
CCC1C(=O)N(C)c2cnc(Nc3ccc(S(=O)(=O)NCCCO)cc3)nc2N1c1ccn(C)n1 (racemic)	13400	21600	25800	23700 nM	48800	–	–	192	–	–	inactive	–	–
CCC1C(=O)N(C)c2cnc(Nc3ccc(S(=O)(=O)NCCO)cc3)nc2N1c1ccn(C)n1 (racemic)	–	–	–	inactive	–	–	–	478	inactive	inactive	inactive	inactive	inactive
CC[C@@H]1C(=O)N(C)c2cnc(Nc3ccc(S(=O)(=O)NCCCO)cc3)nc2N1C1CCCC1	331	363	2140	357 nM	437	262	–	8.16	–	–	–	–	–
CCC1C(=O)N(C)c2cnc(Nc3ccc(S(N)(=O)=O)cc3)nc2N1c1ccn(C)n1 (racemic)	–	36600	–	12600 nM	–	–	–	121	–	inactive	inactive	inactive	inactive
CC[C@@H]1C(=O)N(C)c2cnc(Nc3ccc(S(=O)(=O)NC4CCCC4)cc3)nc2N1C1CCCC1	872	688	1710	609 nM	1150	389	–	23.9	–	–	–	–	–
CCNC(=O)c1ccc2c(ccn2-c2ncc3c(n2)N(C2CCCC2)[C@H](CC)C(=O)N3C)c1	428	784	882	418 nM	1120	596	–	4.88	–	–	–	–	–
